This note sets out measurements from patent US20230011869A1 (Hoffmann-La Roche Inc., priority 2018, published 2023).

This test relates to Acinetobacter baumannii ATCC17978. In words: Antimicrobial susceptibility testing: 90% growth inhibitory concentration (IC90) determination, Iso-Sensitest broth. Format: cell-based. The procedure, abridged: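 A. baumannii ATCC17978 grown in Iso-Sensitest broth across 10 compound concentrations at 35±2 °C.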
Setting [1] is: Acinetobacter baumannii, ATCC17978, 16 h, read-out: ATCC17978 IC90, 90% growth inhibitory concentration, Acinetobacter baumannii ATCC17978, Iso-Sensitest broth, OD 600 nm over 16 h.
Where [2] appears, read: 90% growth inhibitory concentration, Acinetobacter baumannii ATCC17978, Iso-Sensitest broth, OD 600 nm over 16 h, read-out: ATCC17978 IC90.

Structures can show the parent of a compound that is named as a salt. Where two headings read alike, the source gives them in different places.

Turning to `Cc1cc(Nc2nccn3c(-c4ccc(OC(F)F)cc4)cnc23)ccc1C(=O)N1CCC(C(=O)N(C)CC(O)CO)CC1` (stereo not shown) [Example 313, 1-[4-[[3-[4-(difluoromethoxy)phenyl]imi-dazo[1,2-a]pyrazin-8-yl]amino]-2-methylbenzoyl]-N-(2,3-dihydroxypropyl)-N-methylpiperidine-4-carboxamide], under setting [1], the IC90 was found to be 230 nM.
Consider `Cc1cc(Nc2nccn3c(-c4ccc(OC(F)F)cc4)cnc23)ccc1C(=O)N1CCC(N2CCOCC2)CC1` [Example 366, [4-[[3-[4-(difluoromethxoy)phenyl]imi-dazo[1,2-a]pyrazin-8-yl]amino]-2-methylphenyl]-(4-morpholin-4-ylpiperidin-1-yl)methanone], for which the IC90 under setting [1] was 640 nM.
Take `COc1ccc(-c2cnc3c(Nc4ccc(C(=O)N5CCC(CN)CC5)c(C)c4)nccn23)c(F)c1F` [Example 28, (4-(aminomethyl)piperidin-1-yl)(4-((3-(2,3-difluoro-4-methoxyphenyl)imidazo[1,2-a]pyrazin-8-yl)amino)-2-methylphenyl)methanone]: under setting [2], the IC90 came out at 170 nM.
As to `COc1ccc(-c2cnc3c(Nc4ccc(C(=O)N5CCN(C(=O)N[C@@H](C)CN)CC5)c(C)c4)nccn23)c(F)c1F` [Example 147, N-[(1S)-2-amino-1-methyl-ethyl]-4-[4-[[3-(2,3-difluoro-4-methoxy-phenyl)imidazo[1,2-a]pyrazin-8-yl]amino]-2-methyl-benzoyl]piperazine-1-carboxamide hydrochloride], the IC90 under setting [2] was determined as 210 nM.
Turning to `Cc1cc(Nc2nccn3c(-c4ccc(OC(F)F)cc4)cnc23)ccc1C(=O)N1CCN(C(=O)[C@H](N)CCC(=O)O)CC1` [Example 275, (4R)-4-amino-5-[4-[4-[[3-[4-(difluoromethoxy)phenyl]imi-dazo[1,2-a]pyrazin-8-yl]amino]-2-methylbenzoyl]piperazin-1-yl]-5-oxopentanoic acid; hydrochloride], under setting [1], the IC90 was found to be 3100 nM.
Regarding `COc1ccc(-c2cnc3c(Nc4ccc(C(=O)N5CCNCC5CO)c(C)c4)nccn23)cc1F` (stereo not shown) [Example 42, (4-((3-(3-fluoro-4-methoxyphenyl)imidazo[1,2-a]pyrazin-8-yl)amino)-2-methylphenyl)(2-(hydroxymethyl)piperazin-1-yl)methanone], the IC90 under setting [2] amounted to 270 nM.
In the case of `COc1ccc(-c2cnc3c(Nc4ccc(C(=O)N5CCC(C(=O)NCCN6CCNCC6=O)CC5)c(C)c4)nccn23)cc1F` [Example 412, 1-[4-[[3-(3-fluoro-4-methoxyphenyl)imidazo[1,2-a]pyrazin-8-yl]amino]-2-methylbenzoyl]-N-[2-(2-oxopiperazin-1-yl)ethyl]piperidine-4-carboxamide; 2,2,2-trifluoroacetic acid], the IC90 under setting [1] is 760 nM.
With `COc1ccc(-c2cnc3c(Nc4ccc(C(=O)N5CCC(C(=O)N6CCN(C)C(C(=O)O)C6)CC5)c(C)c4)nccn23)c(F)c1F` (stereo not shown) [Example 273, 4-[1-[4-[[3-(2,3-difluoro-4-methoxyphenyl)imidazo[1,2-a]pyrazin-8-yl]amino]-2-methylbenzoyl]piperidine-4-carbonyl]-1-methylpiperazine-2-carboxylic acid], the IC90 under setting [2] was found to be 2400 nM.
For the compound `COc1ccc(-c2cnc3c(Nc4ccc(C(=O)N5CCN(C(=O)[C@H]6CCNC[C@H]6O)CC5)c(C)c4)nccn23)c(Cl)c1F` [Example 217, [4-[[3-(2-chloro-3-fluoro-4-methoxy-phenyl)imidazo[1,2-a]pyrazin-8-yl]amino]-2-methyl-phenyl]-[4-[(3S,4S)-3-hydroxypiperidine-4-carbonyl]piperazin-1-yl]methanone], the IC90 under setting [2] was 280 nM.
Still for that read-out and setting: to `Cc1cc(Nc2nccn3c(-c4ccc(OCC#CCO)c(F)c4)cnc23)ccc1C(=O)N1CCC(CCN)CC1` [Example 246, [4-(2-aminoethyl)-1-piperidyl]-[4-[[3-[3-fluoro-4-(4-hydroxybut-2-ynoxy)phenyl]imidazo[1,2-a]pyrazin-8-yl]amino]-2-methyl-phenyl]methanone] belongs 92 nM.
For the compound `Cc1cc(Nc2nccn3c(-c4ccc(OC(F)F)cc4)cnc23)ccc1C(=O)N1CCN(C(=O)c2cc(C(=O)O)ncn2)CC1` [Example 269, 6-[4-[4-[[3-[4-(difluoromethoxy)phenyl]imi-dazo[1,2-a]pyrazin-8-yl]amino]-2-methylbenzoyl]piperazine-1-carbonyl]pyrimidine-4-carboxylic acid], under setting [1], the IC90 stood at 2000 nM.
Consider `Cc1cc(Nc2nccn3c(-c4ccc(OC(F)F)cc4)cnc23)ccc1C(=O)N1CCN(C(=O)N2CCNCC2CO)CC1` (stereo not shown) [Example 505, [4-[[3-[4-(difluoromethoxy)phenyl]imi-dazo[1,2-a]pyrazin-8-yl]amino]-2-methylphenyl]-[4-[2-(hydroxymethyl)piperazine-1-carbonyl]piperazin-1-yl]methanone], for which, under setting [1], the IC90 was 500 nM.
As to `COc1ccc(-c2cnc3c(Nc4ccc(C(=O)N5CCN(C(=O)[C@H]6CCNC[C@@H]6O)CC5)c(C)c4)nccn23)c(Cl)c1F` [Example 219, [4-[[3-(2-chloro-3-fluoro-4-methoxy-phenyl)imidazo[1,2-a]pyrazin-8-yl]amino]-2-methyl-phenyl]-[4-[(3R,4S)-3-hydroxypiperidine-4-carbonyl]piperazin-1-yl]methanone formate], under setting [2], the IC90 is 220 nM.
As for `Cc1cc(Nc2nccn3c(-c4ccc(OC(F)F)cc4)cnc23)ccc1C(=O)N1CCN(C(=O)[C@H]2C[C@H](N)C2)CC1` [Example 250, [4-(3-aminocyclobutanecarbonyl)piperazin-1-yl]-[4-[[3-[4-(difluoromethoxy)phenyl]imidazo[1,2-a]pyrazin-8-yl]amino]-2-methyl-phenyl]methanone hydrochloride], under setting [1], the IC90 was 160 nM.
For `Cc1cc(Nc2nccn3c(-c4ccc(OC(F)F)cc4)cnc23)ccc1C(=O)N1CCN(C(=O)[C@H]2CCNC2)CC1` [Example 495, [4-[[3-[4-(difluoromethoxy)phenyl]imi-dazo[1,2-a]pyrazin-8-yl]amino]-2-methylphenyl]-[4-[(3S)-pyrrolidine-3-carbonyl]piperazin-1-yl]methanone; hydrochloride], the IC90 under setting [1] amounted to 320 nM.
Take `CCc1cc(Nc2nccn3c(-c4ccc(OCC#N)c(F)c4F)cnc23)ccc1C(=O)N1CCN(CCN(C)C)CC1` [Example 30, 2-(4-(8-((4-(4-(2-(dimethylamino)ethyl)piperazine-1-carbonyl)-3-ethylphenyl)amino)imidazo[1,2-a]pyrazin-3-yl)-2,3-difluorophenoxy)acetonitrile]: the IC90 under setting [2] came out at 130 nM.
Consider `COc1ccc(-c2cnc3c(Nc4ccc(C(=O)N5CCN(C(=O)N6CCN[C@@H](C(=O)O)C6)CC5)c(C)c4)nccn23)c(F)c1F` [Example 436, (2R)-4-[4-[4-[[3-(2,3-difluoro-4-methoxyphenyl)imidazo[1,2-a]pyrazin-8-yl]amino]-2-methylbenzoyl]piperazine-1-carbonyl]piperazine-2-carboxylic acid; formic acid], for which, under setting [1], the IC90 is 760 nM.
Take `COc1ccc(-c2cnc3c(Nc4ccc(C(=O)N5CCN(C(=O)[C@H]6CCNC6)CC5)c(C)c4)nccn23)cc1F` [Example 186, [4-[[3-(3-fluoro-4-methoxy-phenyl)imidazo[1,2-a]pyrazin-8-yl]amino]-2-methyl-phenyl]-[4-[(3S)-pyrrolidine-3-carbonyl]piperazin-1-yl]methanone hydrochloride]: under setting [2], the IC90 was found to be 250 nM.
Regarding `COc1ccc(-c2cnc3c(Nc4ccc(C(=O)N5CCN(C(=O)[C@@H]6CCNC6)CC5)c(C)c4)nccn23)cc1F` [Example 483, [4-[[3-(3-fluoro-4-methoxyphenyl)imidazo[1,2-a]pyrazin-8-yl]amino]-2-methylphenyl]-[4-[(3R)-pyrrolidine-3-carbonyl]piperazin-1-yl]methanone; hydrochloride], under setting [1], the IC90 came out at 180 nM.
`Cc1cc(Nc2nccn3c(-c4ccc(OC(F)F)cc4)cnc23)ccc1C(=O)N1CCC(C(=O)N[C@@H]2[C@@H](O)[C@H](O)[C@@H](CO)O[C@@H]2O)CC1` [Example 350, 1-[4-[[3-[4-(difluoromethoxy)phenyl]imi-dazo[1,2-a]pyrazin-8-yl]amino]-2-methylbenzoyl]-N-[(2S,3R,4R,5S,6R)-2,4,5-trihydroxy-6-(hydroxymethyl)oxan-3-yl]piperidine-4-carboxamide]: under setting [1], the IC90 amounted to 710 nM.
Take `CNCCCNC(=O)C1CCN(C(=O)c2ccc(Nc3nccn4c(-c5ccc(OC)c(F)c5)cnc34)cc2C)CC1` [Example 49, 1-(4-((3-(3-fluoro-4-methoxyphenyl)imidazo[1,2-a]pyrazin-8-yl)amino)-2-methylbenzoyl)-N-(3-(methylamino)propyl)piperidine-4-carboxamide hydrochloride]: under setting [1], the IC90 was 270 nM.
As to `COc1ccc(-c2cnc3c(Nc4ccc(C(=O)N5CCN(S(N)(=O)=O)CC5)c(C)c4)nccn23)cc1F` [Example 389, 4-[4-[[3-(3-fluoro-4-methoxyphenyl)imidazo[1,2-a]pyrazin-8-yl]amino]-2-methylbenzoyl]piperazine-1-sulfonamide], the IC90 under setting [2] was 310 nM.
Consider `Cc1cc(Nc2nccn3c(-c4ccc(OC(F)F)cc4)cnc23)ccc1C(=O)N1CCC(CN)CC1` [Example 18, (4-(aminomethyl)piperidin-1-yl)(4-((3-(4-(difluoromethoxy)phenyl)imidazo[1,2-a]pyrazin-8-yl)amino)-2-methylphenyl)methanone hydrochloride], for which the IC90 under setting [2] is 150 nM.
With `Cc1cc(Nc2nccn3c(-c4ccc(OC(F)F)cc4)cnc23)ccc1C(=O)N1CCC(N2CCN(C)CC2)CC1` [Example 36, (4-((3-(4-(difluoromethoxy)phenyl)imidazo[1,2-a]pyrazin-8-yl)amino)-2-methylphenyl)(4-(4-methylpiperazin-1-yl)piperidin-1-yl)methanone], the IC90 under setting [2] was 250 nM.
Take `Cc1cc(Nc2nccn3c(-c4ccc(OCC#N)c(F)c4Cl)cnc23)ccc1C(=O)N1CCC(C(=O)OC[C@H]2CNCCN2)CC1` [Example 469, [(2R)-piperazin-2-yl]methyl 1-[4-[[3-[2-chloro-4-(cyanomethoxy)-3-fluorophenyl]imidazo[1,2-a]pyrazin-8-yl]amino]-2-methylbenzoyl]piperidine-4-carboxylate]: under setting [2], the IC90 is 88 nM.
